Measured values from article PMC7699649 (Communications Biology, 2020).
No end group written: not given here.

Tests used:
[1] = test system: VR Enterococcus faecium NCTC 12204; settings: Supplementary Table 3; medium not stated; at least three biological replicates
Experimental: (§1) The antibacterial activity of the peptides was assessed through a modified twofold broth microdilution assay with modal MICs generated from at least three biological replicate experiments[20],[25]. The method broadly followed EUCAST methodology, with non-cation-adjusted Mueller Hinton or RPMI replacing cation-adjusted Mueller Hinton. Peptides and antibiotics were diluted in a twofold dilution in media down a 96 well plate. Bacteria were then added, back-diluted from an overnight culture, at a starting concentration of 5 × 10^5 CFU/ml. Plates were incubated, static at 37 C, for 20 h and the OD600 was determined using a Clariostar plate reader (BMG Labtech). […] Synergy was measured using standard microdilution checkerboard assays under the same conditions as the MICs[54]. Twofold dilution series of each peptide or antibiotic were prepared in separate 96 well plates and then combined into one before addition of bacteria. The growth/no growth interface was determined using the same definition as the MIC. The fractional inhibitory concentration was calculated from the most synergistic well on the plate for three independent repeats, and presented as the average +/− standard deviation. FIC is calculated as (MIC of compound A in combination with B/MIC of compound A alone) + (MIC of compound B in combination with A/MIC of compound B alone). MICs were determined on the same plates as the FICs to increase reproducibility.

[2] = test system: VS Enterococcus faecalis NCTC 775; settings: Supplementary Table 3; medium not stated; at least three biological replicates
Experimental: as §1

[3] = test system: Acinetobacter baumannii ATCC 17978; settings: Supplementary Table 3; medium not stated; at least three biological replicates
Experimental: as §1

[4] = test system: EMR Staphylococcus aureus-16 NCTC 13277; settings: Supplementary Table 3; medium not stated; at least three biological replicates
Experimental: as §1

[5] = test system: Pseudomonas aeruginosa NCTC 13437; settings: Supplementary Table 3; medium not stated; at least three biological replicates
Experimental: as §1

[6] = test system: Klebsiella pneumoniae NCTC 13368; settings: Supplementary Table 3; medium not stated; at least three biological replicates
Experimental: as §1

[7] = test system: Pseudomonas aeruginosa PAO1; settings: Supplementary Table 3; medium not stated; at least three biological replicates
Experimental: as §1

[8] = test system: MS Staphylococcus aureus ATCC 9144; settings: Supplementary Table 3; medium not stated; at least three biological replicates
Experimental: as §1

[9] = test system: Acinetobacter baumannii AYE; settings: Supplementary Table 3; medium not stated; at least three biological replicates
Experimental: as §1

[10] = test system: EMR Staphylococcus aureus-15 NCTC 13616; settings: Supplementary Table 3; medium not stated; at least three biological replicates
Experimental: as §1

Klebsiella pneumoniae M6 = settings: Supplementary Table 3; medium not stated; at least three biological replicates
Experimental: as §1

[11] = test system: Escherichia coli NCTC 12923; settings: Supplementary Table 3; medium not stated; at least three biological replicates
Experimental: as §1

human red blood cells = test: Haemolysis assay; type: cell-based; settings: human red blood cells in PBS, 1 h 37 °C, OD550, relative to 0.1% Triton-X-100; for concentration at which 10% haemolysis is achieved: three biological replicates
Experimental: Haemolysis was tested by incubating titrations of AMPs in PBS with freshly collected human red blood cells for 1 h at 37 °C. Control wells were treated with 0.1% Triton-X-100 to ensure complete lysis, or PBS-only to represent no lysis. Samples were spun down to remove non-lysed cells and the OD550 of the supernatant was measured using a Clariostar plate reader. The percentage of haemolysis was calculated as % haemolysis = (AP − AB)/(AC − AB) × 100, where AP is the absorbance value for a known peptide concentration, AC is the absorbance of the 0.1% Triton-X-100 control, AB is the absorbance of the PBS control. Data presented are averages and standard error from three biological replicate experiments.

CC(C)(O/N=C(\C(=O)N[C@@H]1C(=O)N2C(C(=O)[O-])=C(C[n+]3ccccc3)CS[C@H]12)c1csc(N)n1)C(=O)O [Ceftazidime]
Antibiogram, antibiotic concentration (MIC) [1]: > 128 µg/mL
Antibiogram, antibiotic concentration (MIC) [2]: 32 µg/mL
Antibiogram, antibiotic concentration (MIC) [3]: < 0.5 µg/mL
Antibiogram, antibiotic concentration (MIC) [4]: 8 µg/mL
Antibiogram, antibiotic concentration (MIC) [5]: > 128 µg/mL
Antibiogram, antibiotic concentration (MIC) [6]: 512 µg/mL
Antibiogram, antibiotic concentration (MIC) [7]: 1 µg/mL
Antibiogram, antibiotic concentration (MIC) [8]: 16 µg/mL
Antibiogram, antibiotic concentration (MIC) [9]: > 128 µg/mL
Antibiogram, antibiotic concentration (MIC) [10]: 128 µg/mL
Antibiogram, antibiotic concentration (MIC) (Klebsiella pneumoniae M6): < 0.5 µg/mL

O=C(O)c1cn(C2CC2)c2cc(N3CCNCC3)c(F)cc2c1=O [Ciprofloxacin]
Antibiogram, antibiotic concentration (MIC) [1]: 1 µg/mL
Antibiogram, antibiotic concentration (MIC) [2]: 2 µg/mL
Antibiogram, antibiotic concentration (MIC) [11]: ≤ 0.125 µg/mL
Antibiogram, antibiotic concentration (MIC) [3]: 0.5 µg/mL
Antibiogram, antibiotic concentration (MIC) [4]: 128 µg/mL
Antibiogram, antibiotic concentration (MIC) [5]: 64 µg/mL
Antibiogram, antibiotic concentration (MIC) [6]: 0.5 µg/mL
Antibiogram, antibiotic concentration (MIC) [7]: 0.5 µg/mL
Antibiogram, antibiotic concentration (MIC) [8]: 1 µg/mL
Antibiogram, antibiotic concentration (MIC) [9]: 128 µg/mL
Antibiogram, antibiotic concentration (MIC) [10]: 64 µg/mL
Antibiogram, antibiotic concentration (MIC) (Klebsiella pneumoniae M6): < 0.5 µg/mL

CNC(C)C1CCC(N)C(OC2C(N)CC(N)C(OC3OCC(C)(O)C(NC)C3O)C2O)O1 (centres unmarked) [Gentamicin]
Antibiogram, antibiotic concentration (MIC) [1]: 4 µg/mL
Antibiogram, antibiotic concentration (MIC) [2]: 4 µg/mL
Antibiogram, antibiotic concentration (MIC) [11]: 1 µg/mL
Antibiogram, antibiotic concentration (MIC) [3]: 0.5 µg/mL
Antibiogram, antibiotic concentration (MIC) [4]: 0.25 µg/mL
Antibiogram, antibiotic concentration (MIC) [5]: 256 µg/mL
Antibiogram, antibiotic concentration (MIC) [6]: 4 µg/mL
Antibiogram, antibiotic concentration (MIC) [7]: 4 µg/mL
Antibiogram, antibiotic concentration (MIC) [8]: 0.25 µg/mL
Antibiogram, antibiotic concentration (MIC) [9]: > 512 µg/mL
Antibiogram, antibiotic concentration (MIC) [10]: 0.25 µg/mL
Antibiogram, antibiotic concentration (MIC) (Klebsiella pneumoniae M6): 0.25 µg/mL

NC[C@H]1O[C@H](O[C@H]2[C@H](O)[C@@H](O[C@H]3O[C@H](CO)[C@@H](O)[C@H](N)[C@H]3O)[C@H](N)C[C@@H]2N)[C@H](N)C[C@@H]1O [Tobramycin]
Antibiogram, antibiotic concentration (MIC) [1]: 64 µg/mL
Antibiogram, antibiotic concentration (MIC) [2]: 4 µg/mL
Antibiogram, antibiotic concentration (MIC) [11]: 16 µg/mL
Antibiogram, antibiotic concentration (MIC) [3]: 4 µg/mL
Antibiogram, antibiotic concentration (MIC) [4]: 0.25 µg/mL
Antibiogram, antibiotic concentration (MIC) [5]: 64 µg/mL
Antibiogram, antibiotic concentration (MIC) [6]: 64 µg/mL
Antibiogram, antibiotic concentration (MIC) [7]: 2 µg/mL
Antibiogram, antibiotic concentration (MIC) [8]: 0.25 to 0.5 µg/mL
Antibiogram, antibiotic concentration (MIC) [9]: 64 µg/mL
Antibiogram, antibiotic concentration (MIC) [10]: 0.5 µg/mL
Antibiogram, antibiotic concentration (MIC) (Klebsiella pneumoniae M6): 8 µg/mL

Colistin
Antibiogram, antibiotic concentration (MIC) [11]: 0.0625 µg/mL
Antibiogram, antibiotic concentration (MIC) [3]: 1 µg/mL
Antibiogram, antibiotic concentration (MIC) [5]: 4 µg/mL
Antibiogram, antibiotic concentration (MIC) [6]: 1 µg/mL
Antibiogram, antibiotic concentration (MIC) [7]: 2 µg/mL
Antibiogram, antibiotic concentration (MIC) [9]: 1 µg/mL
Antibiogram, antibiotic concentration (MIC) [10]: > 128 µg/mL
Antibiogram, antibiotic concentration (MIC) (Klebsiella pneumoniae M6): 2 µg/mL

GWGSFFKKAAHAGKHAGKAALTHYL-NH2 [Pleurocidin-VA]
haemolysis at the highest concentration tested 400 µg/ml (human red blood cells): Neither pleurocidin-VA nor D-pleurocidin-VA induce detectable haemolysis

GWGSFFKKAAHVGKHVGKAALTHYL-NH2 [Pleurocidin, reference compound]
haemolysis at the highest concentration tested 400 µg/ml (human red blood cells): 50%
concentration at which 10% haemolysis is achieved (human red blood cells): 120 µg/mL

GWGSFFRRAAHVGRHVGRAALTHYL-NH2 [Pleurocidin-KR]
concentration at which 10% haemolysis is achieved (human red blood cells): 192 µg/mL
